Source: ChEMBL document CHEMBL5365529, “Construction and Evaluation of Novel Dual-function Antifungal Inhibitors and Covalent Organic Framework Carriers Based on the Infection Microenvironment” (J Med Chem, 2023)
pIC50: −log10 of the molar value. Converted amounts (≈) assume the structure as drawn. The source made the active and inactive calls. The rule behind the calls is not given here.

Assays:
[1] = target: T1, Lanosterol 14-alpha demethylase (Candida albicans (strain SC5314 / ATCC MYA-2876) (Yeast), UniProt P10613); assay: Inhibition of CYP51 in Candida albicans SC5314 assessed as unknown sterol level at 4 ug/ml incubated for 16 hrs by GC-MS analysis (reference value: 5.35 %); design: scale not given: the % may be the effect or the level left; conditions: at 4 µg/mL
[2] = target: T1, Lanosterol 14-alpha demethylase; assay: Inhibition of CYP51 in Candida albicans SC5314 assessed as ergosterol level at 4 ug/ml incubated for 16 hrs by GC-MS analysis (reference value: 92.07 %); design: scale not given: the % may be the effect or the level left; conditions: at 4 µg/mL
Nakaseomyces glabratus = assay: Antifungal activity against Candida glabrata assessed as fungal growth inhibition incubated for 72 hrs by CLSI based susceptibility test; type: functional
Candida tropicalis = assay: Antifungal activity against Candida tropicalis ATCC 1369 assessed as fungal growth inhibition incubated for 72 hrs by CLSI based susceptibility test; type: functional
Cryptococcus neoformans = assay: Antifungal activity against Cryptococcus neoformans ZKCC 2209 assessed as fungal growth inhibition incubated for 72 hrs by CLSI based susceptibility test; type: functional
Aspergillus fumigatus = assay: Antifungal activity against Aspergillus fumigatus KM8001 assessed as fungal growth inhibition incubated for 72 hrs by CLSI based susceptibility test; type: functional
Candida albicans [3] = assay: Antifungal activity against FLC-resistant Candida albicans 17# assessed as fungal growth inhibition incubated for 72 hrs by CLSI based susceptibility test; type: functional
[4] = target: T1, Lanosterol 14-alpha demethylase; assay: Inhibition of CYP51 in Candida albicans SC5314 using lanosterol as substrate incubated for 60 mins by HPLC analysis
Candida albicans [5] = assay: Induction of mitochondrial membrane depolarization in Candida albicans SC5314 by JC-1 staining based flow cytometry (reference value: 12.51 %); type: functional
Candida albicans [6] = assay: Induction of apoptosis in Candida albicans SC5314 assessed as apoptotic cells incubated for 48 hrs by annexin V-FITC/PI staining based flow cytometry (reference value: 2.12 %); type: functional
Candida albicans [7] = assay: Induction of apoptosis in Candida albicans SC5314 assessed as necrotic cells incubated for 48 hrs by annexin V-FITC/PI staining based flow cytometry (reference value: 2.12 %); type: functional
Candida albicans [8] = assay: Induction of morphological changes in Candida albicans SC5314 assessed as decrease in cell membrane thickness measured after 48 hrs by TEM analysis; type: functional, organism-based
Candida albicans [9] = assay: Induction of morphological changes in Candida albicans SC5314 assessed as decrease in cell wall thickness measured after 48 hrs by TEM analysis; type: functional, organism-based
Candida albicans [10] = assay: Induction of morphological changes in Candida albicans SC5314 assessed as change in cell structure measured after 48 hrs by TEM analysis; type: functional, organism-based
Candida albicans [11] = assay: Induction of morphological changes in Candida albicans SC5314 assessed as leakage of cell contents measured for 96 to 144 hrs by TEM analysis; type: functional, organism-based; conditions: time 96-144 hrs
Candida albicans [12] = assay: Induction of morphological changes in Candida albicans SC5314 assessed as accumulation of low-density granules measured for 96 to 144 hrs by TEM analysis; type: functional, organism-based; conditions: time 96-144 hrs
Candida albicans [13] = assay: Induction of morphological changes in Candida albicans SC5314 assessed as necrotic cellular debris measured for 96 to 144 hrs by TEM analysis; type: functional, organism-based; conditions: time 96-144 hrs
[14] = Drug uptake in Candida albicans SC5314 assessed as increase in green fluorescence by imaging analysis; type: ADME
[15] = Drug uptake in Candida albicans SC5314 assessed as increase in blue fluorescence by hoechst 33256 staining based imaging analysis; type: ADME
[16] = Toxicity in BALB/c mouse infected with Candida albicans 901 assessed as toxic side effects at 0.5 ug/g administered 6 times measured after 4 days; conditions: in vivo, 96 h, dose 0.5 µg/g, time 4 day
Candida albicans [17] = assay: Antifungal activity against Candida albicans 901 infected in BALB/c mouse assessed as restoration of infected tissue morphology at 0.5 ug/g administered 6 times measured after 4 days by H and E staining based analysis; type: functional, organism-based; conditions: dose 0.5 µg/g, time 4.0 day
Candida albicans [18] = assay: Antifungal activity against Candida albicans 901 infected in BALB/c mouse assessed as appearance of necrotic cell fragments in interstitial space at 0.5 ug/g administered 6 times measured after 4 days by H and E staining based analysis; type: functional, organism-based; conditions: dose 0.5 µg/g, time 4.0 day
Candida albicans [19] = assay: Antifungal activity against Candida albicans 901 infected in BALB/c mouse assessed as decrease in collagen fiber content at 0.5 ug/g administered 6 times measured after 4 days by Masson staining based analysis; type: functional, organism-based; conditions: dose 0.5 µg/g, time 4.0 day
Candida albicans [20] = assay: Antifungal activity against Candida albicans 901 infected in BALB/c mouse assessed as decrease in collagen fiber content at 0.5 ug/g administered 6 times measured after 4 days by GMS staining based analysis; type: functional, organism-based; conditions: dose 0.5 µg/g, time 4.0 day
Candida albicans [21] = assay: Antifungal activity against Candida albicans 901 infected in BALB/c mouse assessed as repair of tissue damage at 0.5 ug/g administered 6 times measured after 4 days by Masson staining based analysis; type: functional, organism-based; conditions: dose 0.5 µg/g, time 4.0 day
Candida albicans [22] = assay: Antifungal activity against Candida albicans 901 infected in BALB/c mouse assessed as repair of tissue damage at 0.5 ug/g administered 6 times measured after 4 days by GMS staining based analysis; type: functional, organism-based; conditions: dose 0.5 µg/g, time 4.0 day
[23] = Toxicity in BALB/c mouse infected with Candida albicans 901 assessed as pathological change in lung at 0.5 ug/g administered 6 times measured after 4 days by H and E staining based analysis; type: tissue-based; conditions: in vivo, 96 h, dose 0.5 µg/g, time 4 day
[24] = Toxicity in BALB/c mouse infected with Candida albicans 901 assessed as pathological change in spleen at 0.5 ug/g administered 6 times measured after 4 days by H and E staining based analysis; type: tissue-based; conditions: in vivo, 96 h, dose 0.5 µg/g, time 4 day
[25] = Toxicity in BALB/c mouse infected with Candida albicans 901 assessed as pathological change in liver at 0.5 ug/g administered 6 times measured after 4 days by H and E staining based analysis; type: tissue-based; conditions: in vivo, 96 h, dose 0.5 µg/g, time 4 day
[26] = Toxicity in BALB/c mouse infected with Candida albicans 901 assessed as pathological change in kidney at 0.5 ug/g administered 6 times measured after 4 days by H and E staining based analysis; type: tissue-based; conditions: in vivo, 96 h, dose 0.5 µg/g, time 4 day
[27] = Toxicity in BALB/c mouse infected with Candida albicans 901 assessed as plasma CRE level at 0.5 ug/g administered 6 times measured after 4 days (reference value: 18.48 +/- 2.7 umol/L); conditions: in vivo, 96 h, dose 0.5 µg/g, time 4 day
[28] = Toxicity in BALB/c mouse infected with Candida albicans 901 assessed as plasma BUN level at 0.5 ug/g administered 6 times measured after 4 days (reference value: 20.4 +/- 1.5 mmol/L); conditions: in vivo, 96 h, dose 0.5 µg/g, time 4 day
Mus musculus [29] = assay: Antiinflammatory activity in BALB/c mouse infected with Candida albicans 901 assessed as decrease in COX-2 level at 0.5 ug/g administered 6 times measured after 4 days by IHC analysis; type: functional, organism-based; conditions: dose 0.5 µg/g, time 4.0 day
Mus musculus [30] = assay: Antiinflammatory activity in BALB/c mouse infected with Candida albicans 901 assessed as decrease in IL-2 level at 0.5 ug/g administered 6 times measured after 4 days by IHC analysis; type: functional, organism-based; conditions: dose 0.5 µg/g, time 4.0 day
Candida albicans [31] = assay: Induction of immunity in BALB/c mouse infected with Candida albicans 901 assessed as increase in CD3 positive level at 0.5 ug/g administered 6 times measured after 4 days by IHC analysis; type: functional, organism-based; conditions: dose 0.5 µg/g, time 4.0 day
Candida albicans [32] = assay: Induction of immunity in BALB/c mouse infected with Candida albicans 901 assessed as increase in CD8 positive level at 0.5 ug/g administered 6 times measured after 4 days by IHC analysis; type: functional, organism-based; conditions: dose 0.5 µg/g, time 4.0 day

T1 sequence (P10613 whole entry): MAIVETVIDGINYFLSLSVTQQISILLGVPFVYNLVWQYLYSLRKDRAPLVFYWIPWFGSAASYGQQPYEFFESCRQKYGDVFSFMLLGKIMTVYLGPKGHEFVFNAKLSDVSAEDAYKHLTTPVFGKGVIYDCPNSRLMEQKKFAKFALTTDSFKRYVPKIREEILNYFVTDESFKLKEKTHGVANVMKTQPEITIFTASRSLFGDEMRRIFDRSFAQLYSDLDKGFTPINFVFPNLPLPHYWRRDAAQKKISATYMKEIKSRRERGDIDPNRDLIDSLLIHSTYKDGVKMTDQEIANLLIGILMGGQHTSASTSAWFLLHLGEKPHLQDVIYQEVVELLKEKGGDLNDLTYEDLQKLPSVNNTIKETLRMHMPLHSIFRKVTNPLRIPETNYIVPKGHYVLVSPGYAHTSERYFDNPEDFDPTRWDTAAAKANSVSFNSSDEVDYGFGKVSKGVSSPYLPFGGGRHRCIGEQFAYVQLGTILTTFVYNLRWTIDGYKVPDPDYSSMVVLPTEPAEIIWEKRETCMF

## COC(=O)[C@@H](Cn1cncn1)NCc1cccc(OCc2cccc(-c3ccccc3)c2C)c1
[1]
  Activity: 6.65%
[2]
  Activity: 9.72%
Nakaseomyces glabratus
  MIC50: 0.125 µg/mL (≈ 0.274 µM)
Candida tropicalis
  MIC50: 0.5 µg/mL (≈ 1.1 µM)
Cryptococcus neoformans
  MIC50: 0.5 µg/mL (≈ 1.1 µM)
Aspergillus fumigatus
  MIC50: 2 µg/mL (≈ 4.38 µM)
Candida albicans [3]
  MIC50: 4 µg/mL (≈ 8.76 µM)
[4]
  pIC50: 6.77
Candida albicans [5]
  Activity: 34.74%
Candida albicans [6]
  Activity: 25.91%
Candida albicans [7]
  Activity: 25.91%
Candida albicans [8]
  Activity: Active
Candida albicans [9]
  Activity: Active
Candida albicans [10]
  Activity: Active
Candida albicans [11]
  Activity: Active
Candida albicans [12]
  Activity: Active
Candida albicans [13]
  Activity: Active
[14]
  Drug uptake: Active
[15]
  Drug uptake: Active
[16]
  Activity: Non-Toxic
Candida albicans [17]
  Activity: Active
Candida albicans [18]
  Activity: Active
Candida albicans [19]
  Activity: Active
Candida albicans [20]
  Activity: Active
Candida albicans [21]
  Activity: Active
Candida albicans [22]
  Activity: Active
[23]
  Activity: Non-Toxic
[24]
  Activity: Non-Toxic
[25]
  Activity: Non-Toxic
[26]
  Activity: Non-Toxic
[27]
  Activity: 10.91 µmol/L
[28]
  Activity: 24.7 mmol/L
Mus musculus [29]
  Activity: Active
Mus musculus [30]
  Activity: Active
Candida albicans [31]
  Activity: Active
Candida albicans [32]
  Activity: Active
